Test results as given in article PMC12682123, “Positron emission tomography to assess drug occupancy at peripheral and central incretin receptors” (eBioMedicine, 2025).
Read-outs that look alike come from different tables or passages of the source. No end group written: not given here.

Columns and labels:
[1] = tested on: human GLP-1R; conditions: 10 nM tracer; for reduction of [^68Ga]Ga-DO3A-Exendin-4 binding: 60 min, RT, p < 0.0001
Method: The receptor specificity assay was repeated four times.
The following procedures were then performed for both assays: After incubation, the sections were washed with cold PBS (3× 1 min), dipped in MilliQ water, and air-dried at 37 °C for 10 min. Finally, the sections were exposed to digital phosphorimager plates (BAS-MS, Fujifilm) overnight (>10 radioactive half-lives) followed by digitalisation using a phosphorimage scanner (Amersham Typhoon FLA 9500 Phosphor Imager, GE) with a 50-μm pixel size for image visualisation. A 10 μl reference droplet, containing a known amount of radioactivity, was incorporated to facilitate the quantification of the autoradiogram.
The pixel values, measured in counts/mm^2, were transformed into Bq/mm^2 using the internal reference.

[2] = tested on: GLP-1R
Text: Pigs (n = 9) were positioned in the PET/CT scanner (Discovery MI, GE Healthcare) in a supine position with the brain at the centre of the Field of View (FOV). […] The peptide mass dose was chosen to avoid self-block of the GLP-1R by unlabelled DO3A-Exendin-4 peptide in the formulation and was based on previous dose-escalation studies in non-human primates.[23] A dynamic 60-min PET scan was started at tracer injection, serving as the baseline scan to visualise and quantify GLP-1R expression under normal physiological conditions prior to drug intervention. Following the dynamic scan, a whole-body CT was acquired, immediately followed by a whole-body static PET scan covering the regions from the brain to the bladder.
One experiment used unlabelled DO3A-VS-Exendin-4 (6 μg/kg) as a positive control (Table 4).
The follow-up scan was designed to assess the decreased binding of the tracer to its receptor, which, when compared to the baseline scan, would indicate reduced receptor availability, such as that caused by drug occupancy at the target GLP-1 receptor.
The reconstructed dynamic and whole-body static PET images were analysed using PMOD Base Functionality (PBAS) tool (PMOD Technologies LLC, Zurich, Switzerland) through manual segmentation on trans-axial PET and CT projections. Segmented tissues included the descending aorta, pancreas, liver, spleen, kidneys, and muscle. The tracer distribution in brain regions was measured by automated segmentation of brain regions. This was achieved by fusing the acquired PET dynamic images with the PMOD MRI pig brain atlas. […] CVOs, such as pituitary gland, were not included in the brain atlas and were thus segmented manually.
(§2) The convention to the SUV was corrected to the time and administered amount of radioactivity (in MBq) and the weight (in kilograms) of the pig.
The target engagement or drug occupancy for each experiment was calculated by subtracting the SUV in a tissue at the follow-up scan from the SUV in the same tissue at the baseline scan. The difference was divided by the SUV in tissue at baseline and multiplied by 100 to reach the percentage of drug occupancy (Equation 1):Equation 1 Occupancy(%)=SUVbaseline−SUVfollow−up/SUVbaseline×100
All PET measurements were expressed as average SUVmean.

[3] = tested on: mice; conditions: central administration; cited from earlier work
Text: One of the advancements of GLP-1R/GIPR co-activation is potentially the reduced nausea, food aversion, and emesis associated with GLP-1R-based treatment, in addition to an even more increased reduction in appetite and calorie intake.[26]^,[39] These effects may be associated with central activation of GLP-1 receptors by these drugs, and it has been proposed that the concurrent activation of central GIPR by tirzepatide exerts an anti-emetic effect, thereby improving tolerability to GLP-1 receptor–mediated side effects.

[4] = tested on: GIPR; assay: In vivo GIPR drug occupancy in pigs using [^68Ga]S02-GIP-T4 PET; design: species or system pig; conditions: infusion 0.5/50 μg/ml from 30 min before and throughout second scan, n = 1
Method: The study design for GIPR occupancy assessment in pigs was identical to that of GLP-1R, except for the following differences:
The pigs (n = 5) were positioned in the PET/CT scanner in a supine position with either the brain (n = 2) or the pancreas (n = 3) in the FOV when using [^68Ga]S02-GIP-T4. A target dose of 0.5–1 MBq/kg of [^68Ga]S02-GIP-T4, corresponding to a standardised peptide mass dose of 0.1 μg/kg, was administered for both baseline and follow-up scans (Tables 5 and 6). The peptide mass dose was chosen to avoid self-block of the GIPR, and based on previous dose-escalation studies in non-human primates.[16]
SAR441255 was administered subcutaneously at a dose of 100 μg/kg in four pigs, as described above (Table 5). […]
The reconstructed dynamic and whole-body static PET images were analysed using PMOD Base Functionality (PBAS) tool (PMOD Technologies LLC, Zurich, Switzerland) through manual segmentation on trans-axial PET and CT projections. […] The tracer distribution in brain regions was measured by automated segmentation of brain regions. […]
as §2
The target engagement or drug occupancy for each experiment was calculated by subtracting the SUV in a tissue at the follow-up scan from the SUV in the same tissue at the baseline scan. […]

[5] = cited from earlier work
Text: Tirzepatide is the first dual GLP-1R/GIPR agonist approved for the treatment of type 2 diabetes (T2D).[11]

[6] = tested on: GLP-1R; conditions: in vitro; cited from earlier work
Text: (§1) This can likely be explained by the lower GLP-1R affinity of tirzepatide, which instead is shifted towards higher affinity to the GIPR.[26]

[7] = tested on: GIPR; conditions: in vitro; cited from earlier work
Text: as §1

[8] = cited from earlier work; remark: listed apart in the source
Text: as §1

[9] = pre-administration of unlabelled peptide as positive control, 6 μg/kg / 10 μg/kg (Table 4), n = 1
[10] = even at highest doses (450 μg/kg) s.c.

## DO3A-Exendin-4: unlabelled peptide used for blocking, positive control; made by in-house SPPS by Sanofi
[1]; pre-incubated with 1 μM (10 min, PBS + 1% BSA)
  reduction of [^68Ga]Ga-DO3A-Exendin-4 binding: 80 ± 16%
[2]; [9]
  decrease of [^68Ga]Ga-DO3A-Exendin-4 uptake in pancreas: 73%
  decrease of [^68Ga]Ga-DO3A-Exendin-4 uptake in pituitary gland: 53%
  reduction of [^68Ga]Ga-DO3A-Exendin-4 uptake in hypothalamic region: 55%
  reduction of [^68Ga]Ga-DO3A-Exendin-4 uptake in mammillary body: 60%

## glucagon-like peptide-1 (HAEGTFTSDVSSYLEGQAAKEFIAWLVKGR; ends and bridges not checked; UniProt P01275 98-127, looked up) [GLP-1, endogenous incretin hormone]
[3]
  food intake: reduced food intake

## glucose-dependent insulinotropic polypeptide [GIP (1–42)]
[3]
  food intake: reduced food intake
[4]
  decrease of pancreatic [^68Ga]S02-GIP-T4 signal: 24%

## tirzepatide: first dual GLP-1R/GIPR agonist approved for the treatment of type 2 diabetes
[5]
  glucose-lowering effect vs mono GLP-1R agonism: greater glucose-lowering effect
  weight reduction vs mono GLP-1R agonism: greater weight reduction
[6]
  affinity to GLP-1R vs native GLP-1: fivefold lower affinity
[7]
  affinity to GIPR vs endogenous GIP(1–42): same affinity
[8]; extended plasma half-life, no reference given
  Tmax (in words): on the order of days
[8]; subcutaneous
  Tmax: 8 to 72 h
[1]; 10 μM
  competition with [^68Ga]Ga-DO3A-Exendin-4 at GLP-1R: competed for an overlapping binding site of GLP-1R
[1]; pre-incubated with 10 μM
  reduction of [^68Ga]Ga-DO3A-Exendin-4 binding: 84.9 ± 7%
[2]; 50–450 μg/kg s.c., experimental design not aligned with Tmax
  occupancy in appetite-regulating brain regions: did not show detectable occupancy
[2]; [10]
  GLP-1R occupancy in pancreas, did not exceed: ≤ 60%
  GLP-1R occupancy in pituitary, did not exceed: ≤ 60%
